The subject of test [1] is LAPC4 prostate cancer cells, which express the AKT1 E17K allele. Nature of the test: Antiproliferative effects in LAPC4 cells (CellTiter Glo, 72 h). Format: cell-based. Particulars: Homo sapiens, LAPC4, 72 h, read-out: LAPC4 proliferation IC50: GeoMean IC50. Put shortly:
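Cells grown in IMDM with 12% FBS, seeded at 1,000 cells/well and treated with compound dilutions in DMSO for 72 h. Intracellular ATP read by luminescence. IC50 from a log(inhibitor) vs. response Hill fit.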

In test [2] the target is T1, AKT1 WT (Homo sapiens, UniProt P31749).
T1 construct: expressed in transfected cells; host or cells: HEK293
The experiment in a line: Live cell target engagement by NanoBRET competitive probe displacement, AKT1 WT. Format: binding. Particulars: transfected HEK293 cells, 2 h at 37° C., read-out: AKT1 WT IC50: GeoMean IC50. In general terms: In BRET a luciferase serves as donor, and the signal depends on an acceptor being close.

The target in test [3] is T2, AKT1 E17K (Homo sapiens, UniProt P31749, E17K).
T2 construct: expressed in transfected cells; host or cells: HEK293
Nature of the test: Live cell target engagement by NanoBRET competitive probe displacement, AKT1 E17K. Type of test: binding. Particulars: transfected HEK293 cells, 2 h at 37° C., read-out: AKT1 E17K IC50: GeoMean IC50.

Test [4] concerns the target T3, AKT2 (Homo sapiens, UniProt P31751).
T3 construct: expressed in transfected cells; host or cells: HEK293
Nature of the test: Live cell target engagement by NanoBRET competitive probe displacement, AKT2. Particulars: transfected HEK293 cells, 2 h at 37° C., read-out: AKT2 IC50: GeoMean IC50. Type of test: binding.

Some results are limits rather than exact numbers.

From patent publication US20260053834A1, “COVALENT MODIFIERS OF AKT1 AND USES THEREOF” (Terremoto Biosciences, Inc., priority 2023, published 2026) come the findings set out here.

T1 sequence (P31749 whole entry): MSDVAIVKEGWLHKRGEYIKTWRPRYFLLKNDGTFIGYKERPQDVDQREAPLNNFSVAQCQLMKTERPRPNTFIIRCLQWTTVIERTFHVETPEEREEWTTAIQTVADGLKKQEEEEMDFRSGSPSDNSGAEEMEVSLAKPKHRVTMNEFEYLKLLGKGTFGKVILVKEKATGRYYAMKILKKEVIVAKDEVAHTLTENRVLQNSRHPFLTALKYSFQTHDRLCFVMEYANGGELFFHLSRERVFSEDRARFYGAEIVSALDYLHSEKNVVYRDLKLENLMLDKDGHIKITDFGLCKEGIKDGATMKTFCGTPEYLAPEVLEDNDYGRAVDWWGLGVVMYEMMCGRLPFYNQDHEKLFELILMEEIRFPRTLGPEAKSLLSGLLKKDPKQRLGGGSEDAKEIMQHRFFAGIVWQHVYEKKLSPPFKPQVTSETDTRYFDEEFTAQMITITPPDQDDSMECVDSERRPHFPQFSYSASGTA
T2 sequence (P31749 whole entry E17K): as the sequence (P31749 whole entry) above, with E17K counted along it
T3 sequence (P31751 whole entry): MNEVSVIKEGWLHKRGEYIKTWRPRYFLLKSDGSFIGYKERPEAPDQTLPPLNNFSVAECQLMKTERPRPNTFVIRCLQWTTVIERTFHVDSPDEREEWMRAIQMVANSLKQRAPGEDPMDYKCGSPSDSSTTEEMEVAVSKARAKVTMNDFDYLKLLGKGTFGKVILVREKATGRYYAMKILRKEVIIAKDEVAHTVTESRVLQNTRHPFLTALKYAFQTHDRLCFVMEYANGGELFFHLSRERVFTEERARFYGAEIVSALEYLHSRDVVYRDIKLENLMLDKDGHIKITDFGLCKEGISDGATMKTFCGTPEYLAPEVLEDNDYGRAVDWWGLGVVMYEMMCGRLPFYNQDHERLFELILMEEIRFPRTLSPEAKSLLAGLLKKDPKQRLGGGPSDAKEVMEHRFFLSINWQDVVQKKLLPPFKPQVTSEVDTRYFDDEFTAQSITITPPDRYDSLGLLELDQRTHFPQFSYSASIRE

In the case of `Nc1ncccc1-c1nc2ccc(-n3cccn3)nc2n1-c1ccc2c(c1)CC[C@@H]2NC(=O)c1cccc(C=O)c1` [Example 142, (S)—N-(5-(2-(2-aminopyridin-3-yl)-5-(1H-pyrazol-1-yl)-3H-imidazo[4,5-b]pyridin-3-yl)-2,3-dihydro-1H-inden-1-yl)-3-formylbenzamide], the IC50 in test [1] was 0.1 to 2 µM; in test [2] it was less than 0.01 µM; in test [3], 0.01 to 0.1 µM; in test [4] it was 0.01 to 0.1 µM.

With `Nc1ncccc1-c1nc2ccc(-n3cccn3)nc2n1-c1ccc2c(c1)CC[C@@H]2NC(=O)c1csc(C=O)n1` [Example 143, (S)—N-(5-(2-(2-aminopyridin-3-yl)-5-(1H-pyrazol-1-yl)-3H-imidazo[4,5-b]pyridin-3-yl)-2,3-dihydro-1H-inden-1-yl)-2-formylthiazole-4-carboxamide], the IC50 in test [1], in test [2], in test [3] and in test [4] was 0.1 to 2 µM throughout.

Turning to `Nc1ncccc1-c1nc2ccc(-c3nccs3)nc2n1-c1ccc2c(c1)CC[C@@H]2NC(=O)c1cc(C=O)c(O)cc1F` [Example 144, N-[(1S)-5-[2-(2-aminopyridin-3-yl)-5-(1,3-thiazol-2-yl)imidazo[4,5-b]pyridin-3-yl]-2,3-dihydro-1H-inden-1-yl]-2-fluoro-5-formyl-4-hydroxybenzamide], the IC50 in test [1], in test [2], in test [3] and in test [4] was 0.01 to 0.1 µM throughout.

For the compound `C#Cc1cc(O)c(C=O)cc1C(=O)N[C@H]1CCc2cc(-n3c(-c4cccnc4N)nc4ccc(-n5cccn5)nc43)ccc21` [Example 145, N-[(1S)-5-[2-(2-aminopyridin-3-yl)-5-(pyrazol-1-yl)imidazo[4,5-b]pyridin-3-yl]-2,3-dihydro-1H-inden-1-yl]-2-ethynyl-5-formyl-4-hydroxybenzamide], the IC50 fell in the range of 0.1 to 2 µM in test [1], 0.01 to 0.1 µM in test [2], 0.01 to 0.1 µM in test [3] and 0.1 to 2 µM in test [4].

Consider `Nc1ncccc1-c1nc2ccc(-c3ncc(C(F)F)s3)nc2n1-c1ccc2c(c1)CC[C@@H]2NC(=O)c1ccc(O)c(C=O)c1` [Example 146, (S)—N-(5-(2-(2-aminopyridin-3-yl)-5-(5-(difluoromethyl)thiazol-2-yl)-3H-imidazo[4,5-b]pyridin-3-yl)-2,3-dihydro-1H-inden-1-yl)-3-formyl-4-hydroxybenzamide], for which the IC50 in test [1] fell in the range of 0.1 to 2 µM; in test [2], 0.1 to 2 µM; in test [3], 0.01 to 0.1 µM; in test [4] it was 0.1 to 2 µM.

On to `Nc1ncccc1-c1nc2ccc(-c3nc(C(F)F)cs3)nc2n1-c1ccc2c(c1)CC[C@@H]2NC(=O)c1ccc(O)c(C=O)c1` [Example 147, N-[(1S)-5-[2-(2-aminopyridin-3-yl)-5-[4-(difluoromethyl)-1,3-thiazol-2-yl]imidazo[4,5-b]pyridin-3-yl]-2,3-dihydro-1H-inden-1-yl]-3-formyl-4-hydroxybenzamide], for which the IC50 lay in the range of 0.01 to 0.1 µM in test [1], 0.01 to 0.1 µM in test [2], 0.01 to 0.1 µM in test [3] and 0.1 to 2 µM in test [4].

Regarding `Nc1ncccc1-c1nc2ccc(-n3cccn3)nc2n1-c1ccc2c(c1)CC[C@@H]2Nc1n[nH]c2c(C=O)cccc12` [Example 148, 3-{[(1S)-5-[2-(2-aminopyridin-3-yl)-5-(pyrazol-1-yl)imidazo[4,5-b]pyridin-3-yl]-2,3-dihydro-1H-inden-1-yl]amino}-1H-indazole-7-carbaldehyde], the IC50 in test [1] is 0.1 to 2 µM; in test [2], 0.1 to 2 µM; in test [3], 0.01 to 0.1 µM; in test [4], 0.1 to 2 µM.

Consider `Cc1cc(O)c(C=O)cc1C(=O)N[C@H]1CCc2cc(-n3c(-c4cccnc4N)nc4ccc(-n5cccn5)nc43)ccc21` [Example 149, N-[(1S)-5-[2-(2-aminopyridin-3-yl)-5-(pyrazol-1-yl)imidazo[4,5-b]pyridin-3-yl]-2,3-dihydro-1H-inden-1-yl]-5-formyl-4-hydroxy-2-methylbenzamide], for which the IC50 was in the range of 0.1 to 2 µM in test [1], 0.1 to 2 µM in test [2], 0.01 to 0.1 µM in test [3] and 0.1 to 2 µM in test [4].

For `Nc1ncccc1-c1nc2ccc(-c3ncco3)nc2n1-c1ccc2c(c1)CC[C@@H]2NC(=O)c1cc(C=O)c(O)c(F)c1F` [Example 150, N-[(1S)-5-[2-(2-aminopyridin-3-yl)-5-(1,3-oxazol-2-yl)imidazo[4,5-b]pyridin-3-yl]-2,3-dihydro-1H-inden-1-yl]-2,3-difluoro-5-formyl-4-hydroxybenzamide], the IC50 fell in the range of 0.01 to 0.1 µM in test [1], 0.01 to 0.1 µM in test [2], 0.01 to 0.1 µM in test [3] and 0.1 to 2 µM in test [4].

On to `Nc1ncccc1-c1nc2ccc(-c3ncco3)nc2n1-c1ccc2c(c1)CC[C@@H]2NC(=O)c1cc(C=O)c(O)cc1F` [Example 151, N-[(1S)-5-[2-(2-aminopyridin-3-yl)-5-(1,3-oxazol-2-yl)imidazo[4,5-b]pyridin-3-yl]-2,3-dihydro-1H-inden-1-yl]-2-fluoro-5-formyl-4-hydroxybenzamide], for which the IC50 in test [1] was 0.01 to 0.1 µM; in test [2], 0.01 to 0.1 µM; in test [3], less than 0.01 µM; in test [4], 0.1 to 2 µM.

As to `COCc1cnn(-c2ccc3nc(-c4cccnc4N)n(-c4ccc5c(c4)CC[C@@H]5NC(=O)c4cc(C=O)c(O)cc4F)c3n2)c1` [Example 152, (S)—N-(5-(2-(2-aminopyridin-3-yl)-5-(4-(methoxymethyl)-1H-pyrazol-1-yl)-3H-imidazo[4,5-b]pyridin-3-yl)-2,3-dihydro-1H-inden-1-yl)-2-fluoro-5-formyl-4-hydroxybenzamide], the IC50 in test [1] was 0.1 to 2 µM; in test [2], 0.1 to 2 µM; in test [3], 0.01 to 0.1 µM; in test [4] it was 0.1 to 2 µM.

For `Cc1cc(-n2cccn2)nc2c1nc(-c1cccnc1N)n2-c1ccc2c(c1)CC[C@@H]2NC(=O)c1cc(C=O)c(O)c(F)c1F` [Example 153, (S)—N-(5-(2-(2-aminopyridin-3-yl)-7-methyl-5-(1H-pyrazol-1-yl)-3H-imidazo[4,5-b]pyridin-3-yl)-2,3-dihydro-1H-inden-1-yl)-2,3-difluoro-5-formyl-4-hydroxybenzamide], the IC50 in test [1], in test [2], in test [3] and in test [4] was 0.01 to 0.1 µM in each case.

In the case of `CN(C)S(=O)(=O)Nc1ccc(C(=O)N[C@H]2CCc3cc(-n4c(-c5cccnc5N)nc5ccc(-n6cccn6)nc54)ccc32)cc1C=O` [Example 154, N-[(1S)-5-[2-(2-aminopyridin-3-yl)-5-(pyrazol-1-yl)imidazo[4,5-b]pyridin-3-yl]-2,3-dihydro-1H-inden-1-yl]-4-[(dimethylsulfamoyl)amino]-3-formylbenzamide], the IC50 was 0.01 to 0.1 µM in test [1], 0.01 to 0.1 µM in test [2], less than 0.01 µM in test [3] and 0.1 to 2 µM in test [4].

For `C#Cc1ccc(C(=O)N[C@H]2CCc3cc(-n4c(-c5cccnc5N)nc5ccc(-n6cccn6)nc54)ccc32)cc1C=O` [Example 155, N-[(1S)-5-[2-(2-aminopyridin-3-yl)-5-(pyrazol-1-yl)imidazo[4,5-b]pyridin-3-yl]-2,3-dihydro-1H-inden-1-yl]-4-ethynyl-3-formylbenzamide], the IC50 is not below 2 µM in test [1], 0.01 to 0.1 µM in test [2], 0.01 to 0.1 µM in test [3] and 0.01 to 0.1 µM in test [4].

For the compound `Nc1ncccc1-c1nc2ccc(-n3ccc(N4CCC4)n3)nc2n1-c1ccc2c(c1)CC[C@@H]2NC(=O)c1ccc(O)c(C=O)c1` [Example 156, (S)—N-(5-(2-(2-aminopyridin-3-yl)-5-(3-(azetidin-1-yl)-1H-pyrazol-1-yl)-3H-imidazo[4,5-b]pyridin-3-yl)-2,3-dihydro-1H-inden-1-yl)-3-formyl-4-hydroxybenzamide], the IC50 was less than 0.01 µM in test [1], 0.01 to 0.1 µM in test [2], 0.01 to 0.1 µM in test [3] and 0.01 to 0.1 µM in test [4].

In the case of `Nc1ncccc1-c1nc2ccc(-c3ccn(C(F)F)n3)nc2n1-c1ccc2c(c1)CC[C@@H]2NC(=O)c1cc(C=O)c(O)c(F)c1F` [Example 157, (S)—N-(5-(2-(2-aminopyridin-3-yl)-5-(1-(difluoromethyl)-1H-pyrazol-3-yl)-3H-imidazo[4,5-b]pyridin-3-yl)-2,3-dihydro-1H-inden-1-yl)-2,3-difluoro-5-formyl-4-hydroxybenzamide], the IC50 was 0.01 to 0.1 µM in test [1], 0.01 to 0.1 µM in test [2], less than 0.01 µM in test [3] and 0.01 to 0.1 µM in test [4].

With `Nc1ncccc1-c1nc2ccc(-c3ccn(C(F)F)n3)nc2n1-c1ccc2c(c1)CC[C@@H]2NC(=O)c1cc(C=O)c(O)cc1F` [Example 158, N-[(1S)-5-[2-(2-aminopyridin-3-yl)-5-[1-(difluoromethyl)pyrazol-3-yl]imidazo[4,5-b]pyridin-3-yl]-2,3-dihydro-1H-inden-1-yl]-2-fluoro-5-formyl-4-hydroxybenzamide], the IC50 in test [1] lay in the range of 0.01 to 0.1 µM; in test [2] it was 0.01 to 0.1 µM; in test [3], 0.01 to 0.1 µM; in test [4], 0.1 to 2 µM.

With `Nc1ncccc1-c1nc2ccc(-n3cccn3)nc2n1-c1ccc2c(c1)CC[C@@H]2NC(=O)c1cc(C=O)c(O)cc1O` [Example 159, (S)—N-(5-(2-(2-aminopyridin-3-yl)-5-(1H-pyrazol-1-yl)-3H-imidazo[4,5-b]pyridin-3-yl)-2,3-dihydro-1H-inden-1-yl)-5-formyl-2,4-dihydroxybenzamide], the IC50 lay within 0.1 to 2 µM in test [1], 0.01 to 0.1 µM in test [2], 0.01 to 0.1 µM in test [3] and 0.1 to 2 µM in test [4].
